A short description of assay [1]: Evaluation for umami/kokumi taste and mouthfeel by a team of 8 trained panelists, in 0.3% aqueous NaCl solution. The conditions noted are these: 10 ppm in 0.3% aqueous NaCl solution. The procedure: Liquid 2-(3-phenylpropyl)pyridine was obtained from R.C. Treatt & Co Ltd, UK (reference SA362100/2). It was then diluted into propylene glycol solvent to provide a 10% solution of the 2-(3-phenylpropyl)pyridine, the resulting solution then being added to a 0.3% aqueous NaCl solution to provide a concentration of 2-(3-phenylpropyl)pyridine of 10 ppm.
The sample was evaluated for umami/kokumi taste and mouthfeel by a team of 8 trained panelists.

The conditions of assay [2]: prior art, U.S. Pat. No. 5,298,486 column 2 lines 24 to 33; cited from earlier work.

Each structure is given as a SMILES string.

As for `c1ccc(CCCc2ccccn2)cc1` [2-(3-phenylpropyl)pyridine], in assay [1], the “Description: Mouthfeel” value was “Mouthfeel: sweet,” and the “Description: Taste” value is “Taste: brown, fatty,”. This compound also gave a Kokumi/Umami taste intensity in assay [1] (scale of 0 to 10, 0 = no Kokumi/Umami effect, 10 = very intense effect) of 7.

`CCCCCCCc1cccnc1` [3-heptylpyridine]: in assay [2], the flavor note result was “fatty, metallic and fishy”.

`CCCCCCc1cccnc1` [3-hexylpyridine]: the flavor note entry in assay [2] is “fruity”.

(Values after patent US20110020517A1, “TASTE MODIFYING PRODUCT” (priority 2008, published 2011).)
